Results: the supplement of paper PMC10307832

How the values were obtained:
Assay in all cases: relative viability (nuclei count vs DMSO), 5 days (fraction); higher = more cells survive
A-427 = tested on: A-427
Procedure, shortened: (§1)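 Lung cancer cell lines in 1536-well plates got either a single drug or a fixed anchor-drug dose together with five library-drug doses (not always all listed) in √10 steps, by pin tool, on the day after seeding. Nuclei were counted after 5 days, and relative viability is the treated-to-vehicle ratio of nuclei counts. Values are medians of duplicate plates.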

COR-L 105 = tested on: COR-L 105
Procedure, shortened: as §1

ChaGo-K-1 = tested on: ChaGo-K-1
Procedure, shortened: as §1

EKVX = tested on: EKVX
Procedure, shortened: as §1

EMC-BAC-2 = tested on: EMC-BAC-2
Procedure, shortened: as §1

H3255 = tested on: H3255
Procedure, shortened: as §1

LK-2 = tested on: LK-2
Procedure, shortened: as §1

LOU-NH91 = tested on: LOU-NH91
Procedure, shortened: as §1

NCI-H1563 = tested on: NCI-H1563
Procedure, shortened: as §1

NCI-H1666 = tested on: NCI-H1666
Procedure, shortened: as §1

NCI-H1734 = tested on: NCI-H1734
Procedure, shortened: as §1

NCI-H1755 = tested on: NCI-H1755
Procedure, shortened: as §1

Question: Which results are given for C[C@@H]1CN(CC(=O)Nc2ccc3c(c2)Cc2cccc(-c4cc(=O)cc(N5CCOCC5)o4)c2S3)C[C@H](C)O1 + CCNC(=O)c1noc(-c2cc(C(C)C)c(O)cc2O)c1-c1ccc(CN2CCOCC2)cc1 [Luminespib] (partner 0.01 µM)?
Answer: relative viability (A-427; first compound 0.1265 µM): 0.884; relative viability (A-427; first compound 0.4 µM): 1.02; relative viability (A-427; first compound 4 µM): 1.02; relative viability (COR-L 105; first compound 0.04 µM): 0.882; relative viability (COR-L 105; first compound 0.1265 µM): 0.719; relative viability (COR-L 105; first compound 0.4 µM): 0.887; relative viability (COR-L 105; first compound 4 µM): 0.783; relative viability (ChaGo-K-1; first compound 0.04 µM): 0.598; relative viability (ChaGo-K-1; first compound 0.1265 µM): 0.596; relative viability (ChaGo-K-1; first compound 0.4 µM): 0.512; relative viability (ChaGo-K-1; first compound 4 µM): 0.394; relative viability (EKVX; first compound 0.04 µM): 0.802; relative viability (EKVX; first compound 0.1265 µM): 0.874; relative viability (EKVX; first compound 0.4 µM): 0.955; relative viability (EKVX; first compound 4 µM): 0.814; relative viability (EMC-BAC-2; first compound 0.04 µM): 1.28; relative viability (EMC-BAC-2; first compound 0.1265 µM): 1.17; relative viability (EMC-BAC-2; first compound 0.4 µM): 1.08; relative viability (EMC-BAC-2; first compound 4 µM): 1.19; relative viability (H3255; first compound 0.04 µM): 0.952; relative viability (H3255; first compound 0.1265 µM): 0.767; relative viability (H3255; first compound 0.4 µM): 0.912; relative viability (H3255; first compound 4 µM): 0.881; relative viability (LK-2; first compound 0.1265 µM): 0.202; relative viability (LK-2; first compound 0.4 µM): 0.24; relative viability (LK-2; first compound 4 µM): 0.188; relative viability (LOU-NH91; first compound 0.04 µM): 0.39; relative viability (LOU-NH91; first compound 0.1265 µM): 0.358; relative viability (LOU-NH91; first compound 0.4 µM): 0.3; relative viability (LOU-NH91; first compound 4 µM): 0.371; relative viability (NCI-H1563; first compound 0.04 µM): 0.512; relative viability (NCI-H1563; first compound 0.1265 µM): 0.514; relative viability (NCI-H1563; first compound 0.4 µM): 0.477; relative viability (NCI-H1563; first compound 4 µM): 0.514; relative viability (NCI-H1666; first compound 0.04 µM): 1; relative viability (NCI-H1666; first compound 0.1265 µM): 1.09; relative viability (NCI-H1666; first compound 0.4 µM): 1.12; relative viability (NCI-H1666; first compound 4 µM): 0.905; relative viability (NCI-H1734; first compound 0.04 µM): 0.264; relative viability (NCI-H1734; first compound 0.1265 µM): 0.212; relative viability (NCI-H1734; first compound 0.4 µM): 0.195; relative viability (NCI-H1734; first compound 4 µM): 0.291; relative viability (NCI-H1755; first compound 0.04 µM): 0.398; relative viability (NCI-H1755; first compound 0.1265 µM): 0.361; relative viability (NCI-H1755; first compound 0.4 µM): 0.45
